Measured values: paper PMC4648050, “Discovery of Inhibitors of Trypanosoma brucei by Phenotypic Screening of a Focused Protein Kinase Library” (Chemmedchem, 2015)
In brackets after ≈: the same amount, converted by molar mass. Like-named read-outs stand apart in the source and are kept apart here.

Tests used:
[1] = Intrinsic clearance in mouse liver microsomes; format: in vitro ADME; conditions: mouse hepatic microsomes, 0.5 μM compound
Method: Intrinsic clearance experiments: Test compound (0.5 μM) was incubated with female CD1 mouse liver microsomes (Xenotech LLC; 0.5 mg mL^−1 50 mM potassium phosphate buffer, pH 7.4), and the reaction started with the addition of excess NADPH (8 mg mL^−1 50 mM potassium phosphate buffer, pH 7.4). Immediately, at t0, then at 3, 6, 9, 15, and 30 min an aliquot (50 μL) of the incubation mixture was removed and mixed with MeCN (100 μL) to stop the reaction. Internal standard was added to all samples, the samples were centrifuged to sediment precipitated protein, and the plates were then sealed prior to UPLC–MS/MS analysis using a Quattro Premier XE instrument (Waters Corp., USA). XLfit (IDBS, UK) was used to calculate the exponential decay and consequently the rate constant (k) from the ratio of peak area of test compound to internal standard at each time point. The rate of intrinsic clearance [CLint, mL min^−1 (g liver)^−1] of each test compound was then calculated with Equation (3): […]
in which V [mL (mg protein)^−1] is the incubation volume per mg protein added, and microsomal protein yield is taken as 52.5 mg protein per gram of liver. Verapamil (0.5 μM) was used as a positive control to confirm acceptable assay performance.

[2] = Kinetic aqueous solubility (laser nephelometry); format: physicochemical; conditions: Milli-Q water with 2.5% DMSO, kinetic from dmso stock, range 250–12 μM, read-out: Aq. Sol. (aqueous kinetic solubility)
Method: Solubility experiments: The kinetic aqueous solubility of the test compounds was measured using laser nephelometry. Compounds were subject to serial dilution from 10 mM to 0.5 mM in DMSO. An aliquot was then mixed with Milli-Q H2O to obtain an aqueous dilution plate with a final concentration range of 250–12 μM, with a final DMSO concentration of 2.5 %. Triplicate aliquots were transferred to a flat-bottomed polystyrene plate which was immediately read on the NEPHELOstar (BMG Lab Technologies). The amount of laser scatter caused by insoluble particulates (relative nephelometry units, RNU) was plotted against compound concentration using a segmental regression fit, with the point of inflection being quoted as the compounds′ aqueous solubility (in μM).

[3] = Plasma protein binding (equilibrium dialysis); format: in vitro ADME; conditions: mouse plasma; for fraction unbound at 5 h, 10 μg g^−1: female, CD1, read-out: PPB; for fraction unbound at 5 h, 10 μg g^−1 / PPB: equilibrium dialysis
Method: Plasma protein binding experiments: In brief, a 96-well equilibrium dialysis apparatus was used to determine the free fraction in plasma for each compound (HT Dialysis LLC, Gales Ferry, CT, USA). Membranes (12-14 kDa cutoff) were conditioned in deionised H2O for 60 min, followed by conditioning in 80:20 deionised H2O/EtOH for 20 min, and then rinsed in isotonic buffer before use. Female CD1 mouse plasma was removed from the freezer and allowed to thaw on the day of experiment. Thawed plasma was then centrifuged (Allegra […], Beckman Coulter, USA), spiked with test compound (10 μg g^-1), and 150 μL aliquots (n=6 replicate determinations) loaded into the 96-well equilibrium dialysis plate. Dialysis against isotonic buffer (150 μL) was carried out for 5 h in a temperature-controlled incubator at ∼37 °C (Barworld Scientific Ltd., UK) using an orbital microplate shaker at 125 rpm (Barworld Scientific). At the end of the incubation period, aliquots of plasma or buffer were transferred to micronic tubes (Micronic B.V., the Netherlands), and the composition in each tube was balanced with control fluid such that the volume of buffer to plasma is the same. Sample extraction was performed by the addition of 400 μL MeCN containing an appropriate internal standard. Samples were allowed to mix for 1 min and then centrifuged at 3000 rpm in 96-well blocks for 15 min (Allegra […], Beckman Coulter, USA). All samples were analysed by UPLC-MS/MS on a Quattro Premier XE Mass Spectrometer (Waters Corp.). The unbound fraction was determined as the ratio of the peak area in buffer to that in plasma.

[4] = system: MRC5 cells (human lung fibroblasts); assay: MRC5 proliferation assay; format: cell-based; conditions: geometric mean of two or more determinations
Method: (§1) Trypanosome and MRC5 proliferation assay: Measurement of inhibition of the proliferation of MRC5 cells (human lung fibroblasts) and T. brucei bloodstream-stage cells was performed using a modification of a cell viability assay previously described.[35, 36] Compounds ([…] to 0.5 nM) were incubated with 2×10^3 cells per well in 0.2 mL of the appropriate culture medium (MEM with 10 % foetal bovine serum for MRC5 cells) in clear 96-well plates. Plates were incubated at 37 °C in the presence of 5 % CO2 for 69 h. Resazurin was then added to a final concentration of 50 μM, and plates were incubated as above for a further 4 h before being read on a BioTek Flx800 fluorescence plate reader.

[5] = system: T. b. brucei; assay: Trypanosome proliferation assay; format: cell-based, Trypanosoma brucei brucei; conditions: for EC50: geometric mean of two or more determinations, standard cell viability (resazurin) assay, read-out: EC50 T. b. brucei
Method: as §1

[6] = system: T. brucei bloodstream-stage cells; assay: Static–cidal (SC) assay; format: cell-based, Trypanosoma brucei brucei; conditions: for EC50 / MCC: Trypanosoma brucei; for EC50: 48 h; for MCC: static–cidal assay in triplicate, read-out: MCC (minimal cidal concentration); for mode of antiparasitic effect (in words): text and figure legend, at concentrations tested; for plateau of dose–response curve (inhibition): static–cidal dose–response curve
Method: Determination of cidality against T. brucei bloodstream-stage cells was performed using a static–cidal (SC) assay as previously reported.[26] Briefly, bloodstream-form trypanosomes were seeded into 384-well plates at 4×10^5 mL^−1 (50 μL per well), followed by immediate addition of resazurin (50 μM final) to one of the plates, and all plates were incubated at 37 °C, 5 % CO2. After 4 h the t0 plate was read using a PerkinElmer Victor 3 plate reader (λex=528 nm, λem=590 nm). The second plate was processed in the same manner 20 h later, and at 44 h the last plate was processed. The minimum cidal concentration (MCC) is defined as the lowest concentration of drug that results in a decrease of resorufin signal over time. For dose–response curves from this assay either a monophasic or a biphasic equation was used, depending on which one provided the best fit. For monophasic fits, the following four-parametric equation [Eq. (1)] was used:
in which A=percent inhibition at bottom, B=percent inhibition at top, C=EC50, D=slope, x=inhibitor concentration, and y=percent inhibition. Equation (2) was used for biphasic fits:
for which A=percent inhibition at mid-plateau, B=slope, C=log[SC EC50(1)], D=log[SC EC50(2)]. Thus SC EC50(1) is the EC50 for the first phase of the curve, and SC EC50(2) is that for the second phase. Inhibition at the bottom of the curve is fixed at 0 % and at the top, 100 %.

[7] = In vivo pharmacokinetics in mice; design: species or system female NMRI mice; conditions: mouse, whole blood, ip, blood; for Tmax: female, NMRI; for AUC(0-t): read-out: AUC(0–8) (converted)
Method: In vivo pharmacokinetics in mice: Compounds 1 and 28 were dosed orally by gavage as a solution at 5 mg free base per kg or 20 mg free base per kg, respectively (dose volume: 5 or 10 mL kg^−1, dose vehicle: 5 % DMSO, 40 % PEG400, 55 % distilled H2O) to female NMRI mice (n=3). Compounds 28, 38, and 56 were dosed as a bolus solution intraperitoneally at 10 (56) or 20 (28 and 38) mg free base per kg (dose volume: 10 mL kg^−1, dose vehicle: 5 % DMSO, 40 % PEG400, 55 % sterile H2O) to female NMRI mice (n=3). Female NMRI mice were chosen, as these represent the sex and strain used for the stage-1 and stage-2 HAT efficacy models. Blood samples were taken from each mouse at 5 (i.p. only), 15 and 30 min, 1, 2, 4, 6 and 8 h post-dose and mixed with two volumes of distilled H2O. After suitable sample preparation, the concentration of each compound in blood was determined by UPLC–MS/MS using a Quattro Premier XE (Waters, USA). Pharmacokinetic parameters were derived from the mean blood concentration time curve using PKsolutions software ver. 2.0 (Summit Research Services, USA).

[8] = static cidal EC50, first site/phase, read-out: SC EC50(1)
[9] = static cidal EC50, second site/phase, read-out: SC EC50(2)

| SMILES | CLint [1] [mL/min/g] | solubility kinetic [2] [µM] | fraction unbound at 5 h, 10 μg g^−1 [3] | EC50 [4] [µM] | EC50 ([5]; Trypanosoma brucei) [nM] | EC50 [5] [nM] | EC50 [6, 8] [nM] | MCC [6] [µM] | mode of antiparasitic effect (in words) [6] | EC50 [6, 9] [nM] | further results |
| --- | --- | --- | --- | --- | --- | --- | --- | --- | --- | --- | --- |
| O=c1[nH]c2ncc(-c3ccccc3)nc2n1C1CCCCC1 [Compound 19] | 3.6 | 110 (≈ 32.4 µg/mL) | 0.008 | > 50 | 40 | 44 |  |  |  |  | PPB [3]: 0.8 % free |
| O=c1[nH]c2ncc(-c3cccnc3)nc2n1C1CCCCC1 [Compound 30] | 2.8 |  | 0.023 | > 50 | 100 | 120 | 230 | > 50 | growth-slowing or static behaviour |  |  |
| O=c1[nH]c2ncc(N3CCCCC3)nc2n1C1CCCCC1 [Compound 31, 1-Cyclohexyl-6-(piperidin-1-yl)-1H-imidazo[4,5-b]pyrazin-2(3H)-one] | 15 |  |  | > 50 | 80 | 77 |  |  |  |  | PPB [3]: 0 % free |
| O=c1[nH]c2ncc(-c3ccccc3)nc2n1C1CCOCC1 [Compound 38] | 1.6 | 55 (≈ 16.3 µg/mL) |  | > 50 | 100 |  |  |  |  |  | protein binding (unbound) [3]: 15 % unbound; Tmax ([7]; 20 mg/kg, 20 mg kg^−1, female NMRI mice): 2 h; Cmax ([7]; 20 mg kg^−1, female NMRI mice): 83 ng/mL; half-life ([7]; 20 mg kg^−1, female NMRI mice): 132 min; AUC(0-t) ([7]; 20 mg kg^−1, female NMRI mice): 367 ng·h/mL |
| O=c1[nH]c2ncc(-c3ccccc3)cc2n1C1CCCCC1 [Compound 51] | 5.8 | 36 (≈ 10.6 µg/mL) | 0.029 | > 50 | 54 | 50 | 20 | > 50 | growth-slowing or static behaviour | 41000 | Mode ([6]; static/cidal classification from growth curves): S^[d] |
| O=c1[nH]c2ncc(-c3cccnc3)cc2n1C1CCCCC1 [Compound 55] | 2.7 | 180 (≈ 53 µg/mL) | 0.11 | > 50 | 230 |  | 330 | > 50 | growth-slowing or static behaviour |  | fold loss of activity (T. b. brucei EC50) ([5]; relative to the comparator compound): approximately 2 fold |
| O=c1[nH]c2ncc(N3CCCCC3)cc2n1C1CCCCC1 [Compound 56] | 3.6 | > 250 | 0.11 | > 50 | 93 | 90 | 70 | > 50 | growth-slowing or static behaviour | > 50000 | Tmax ([7]; 10 mg/kg, 10 mg kg^−1, female NMRI mice): 0.25 h; Cmax ([7]; 10 mg kg^−1, female NMRI mice): 580 ng/mL; half-life ([7]; 10 mg kg^−1, female NMRI mice): 42 min; AUC(0-t) ([7]; 10 mg kg^−1, female NMRI mice): 883 ng·h/mL |
| c1ccc(-c2cnc3[nH]nc(C4CCCCC4)c3c2)cc1 [Compound 60] | 15 | 20 (≈ 5.55 µg/mL) | 0.014 | > 50 | 59 | 60 | 80 | 17 | cidal behaviour | 7900 | plateau of dose–response curve (inhibition) [6]: 100 % inhibition |
| c1cncc(-c2cnc3[nH]nc(C4CCCCC4)c3c2)c1 [Compound 63] | 6.6 | 250 (≈ 69.6 µg/mL) | 0.052 | > 50 | 260 |  | 280 | 17 | cidal behaviour | 6100 | plateau of dose–response curve (inhibition) [6]: 100 % inhibition |
